Results: US9421206B1, “Hematological treatments based on levomefolate” (Cox Bioscience LLC, priority 2013, dated 2016)
Where two headings read alike, the source gives them in different places.

Assays:
[1] = tested on: Megaloblastic Bone Marrow Cells (Folate Deficiency); details: cited from earlier work
[2] = tested on: Megaloblastic Bone Marrow Cells (B12 Deficiency); details: cited from earlier work
[3] = Evaluation of NHANES 1999-2002 data: hematological markers by serum folate decile, supplement use and unmetabolized folic acid; format: in vivo, human; details: for effect on production of hemoglobin: seniors aged >=60 y, serum hemoglobin with rising serum folate, with or without unmetabolized folic acid; for impact on homocysteine, methylmalonic acid and lactate dehydrogenase: when homocysteine or lactate dehydrogenase levels are elevated; for effect on MCV: with rising serum folate, with or without supplement use
Text: An evaluation of data gathered through NHANES was undertaken to determine the effect of unmetabolized folic acid on serum hemoglobin concentrations. NHANES monitors the nation's health and nutritional status. The survey is currently implemented as a continuous annual survey and uses a complex multistage probability design to select a representative sample of the non-institutionalized US civilian population. Consistent with NHANES analytic guidelines, this example combines data from two separate survey periods spanning 1999-2002. The methods used herein are described in greater detail in Morris et al., AM. J. CLIN. NUTR. 2012; 91:1733-44, and are repeated herein for a more thorough understanding. A detailed description of blood collection and processing can be found in the NHANES Laboratory Procedures Manual. This particular example focuses on seniors (i.e., those aged ≧60 y), and included 3706 senior survey participants. Hemoglobin concentrations were measured at the MEC laboratory by using a MAXM hematology flow cytometer (Beckman Coulter Inc, Fullerton, Calif.). Detailed methods for all the biochemical assays can be found in the NHANES Laboratory Procedures Manuals. Eligible participants were divided into ten […] based on their serum folate concentrations, so that decile 1 includes the 10% of the participants having the lowest serum folate concentrations, decile 10 includes the 10% of the participants having the highest serum folate concentrations. etc. Participants in each decile were then further subdivided based on the detection of unmetabolized folic acid, and/or the participant's serum B12 or serum iron concentration, and mean hemoglobin concentrations calculated for each decile. Data analyses were performed by using SUDAAN release 9.0 (Research Triangle Institute, Research Triangle Park, N.C.) with appropriate sampling weights, pseudo primary sampling units, and stratification variables to account for the survey's complex sampling design.

[4] = Reanalysis of NHANES 1988-1994 vs 1999-2004: impact of folic acid supplement use on anemia and macrocytosis; format: in vivo, human; details: men; 1988-1994 to 1999-2004, with increased use of folic acid supplements
Text: In order to determine whether folic acid supplements could be affecting the incidence of macrocytosis in the United States or whether folic acid supplements could be negatively influencing macrocytic processes, NHANES data reported in Ganji et al., AM. J. CLIN. NUTR. 2009; 89:363-71, were reanalyzed, this time over an extended time period from 1988-1994 until 1999-2004, to determine the impact of supplement use on the incidence of macrocytosis and mean corpuscular volume. Unless otherwise indicated, NHANES data collection methods were substantially the same as in Examples 1 and 2. This study used data from 4 surveys: NHANES 1988-1994, NHANES 1999-2000, NHANES 2001-2002, and NHANES 2003-2004. […] For NHANES 1988-1994 and 1999-2004, multivariate-adjusted and univariate values for hemoglobin, hematocrit, and MCV and prevalence rates (%) for overall anemia and macrocytosis were determined according to sex, race-ethnicity, age, poverty, and vitamin/mineral supplement use (yes or no). Prevalence of anemia (%) based on low hemoglobin concentrations and prevalence of macrocytosis (%) based on high MCV values were determined for the aforementioned demographic categories. The differences in hemoglobin, hematocrit, MCV, and prevalence of anemia and macrocytosis between NHANES 1988-1994 and NHANES 1999-2004 were determined with a 2-tailed unpaired t test. […]

[5] = apparently healthy human subjects; cited from earlier work
[6] = concentration 0.3 (unit not given)
[7] = concentration 1 (unit not given)
[8] = concentration 3 (unit not given)
[9] = concentration 6 (unit not given)
[10] = concentration 30 (unit not given)
[11] = B12 deficiency, concentration 0.3 (unit not given)
[12] = B12 deficiency, concentration 1 (unit not given)
[13] = B12 deficiency, concentration 3 (unit not given)
[14] = B12 deficiency, concentration 6 (unit not given)
[15] = B12 deficiency, concentration 15 (unit not given)
[16] = B12 deficiency, concentration 30 (unit not given)
[17] = concentration 15 (unit not given)
[18] = concentration 300 (unit not given)
[19] = B12 deficiency, concentration 75 (unit not given)
[20] = B12 deficiency, concentration 300 (unit not given)

Compound | dU suppression test value [1, 6] | dU suppression test value [1, 7] | dU suppression test value [1, 8] | dU suppression test value [1, 9] | dU suppression test value [1, 10] | dU suppression test value [2, 11] | dU suppression test value [2, 12] | dU suppression test value [2, 13] | dU suppression test value [2, 14] | dU suppression test value [2, 15] | dU suppression test value [2, 16] | effect on production of hemoglobin [3] | impact on homocysteine, methylmalonic acid and lactate dehydrogenase [3] | effect on MCV [3] | dU suppression test value [1, 17] | dU suppression test value [1, 18] | dU suppression test value [2, 19] | dU suppression test value [2, 20] | also measured
Nc1nc(=O)c2c([nH]1)NCC(CNc1ccc(C(=O)N[C@@H](CCC(=O)O)C(=O)O)cc1)N2C=O (mixture of isomers) [folinic acid] | 3.4% | 1.9% | 1.9% | 1.3% | 1.0% | 4.5% | 2.5% | 1.9% | 2.0% | 2.2% | 1.6% | – | – | – | – | – | – | – | effectiveness in overcoming the defect in DNA precursor synthesis ([2]; all types of vitamin deficiency): most effective
Nc1nc2ncc(CNc3ccc(C(=O)N[C@@H](CCC(=O)O)C(=O)O)cc3)nc2c(=O)[nH]1 [folic acid] | – | 10.3% | – | – | – | – | 14.8% | 12% | – | – | – | reduces the production of hemoglobin | negative impact | leads to increases in MCV | – | – | – | – | dU suppression test value ([1]; concentration 5 (unit not given)): 5.5%; dU suppression test value ([1]; concentration 50 (unit not given)): 2.3%; effect on MCV in survey participants with elevated LDH levels ([3]; LDH > 198 U/L, as folate concentrations increased): increased the MCV; effect on red cell count ([3]; same folate levels, with vs without folic acid supplements): red cell count is improved in the absence of folic acid; dU suppression test value ([2]; B12 deficiency, concentration 50 (unit not given)): 4.1%; incidence of macrocytosis [4]: increased; prevalence of anemia [4]: dropped
α-(5,6-dimethylbenzimidazolyl)cobamide [B12] | – | – | – | – | – | – | – | – | – | – | – | – | – | – | – | – | – | – | dU suppression test value ([1]; 10 mcg/ml): 12.3%; dU suppression test value ([1]; 100 mcg/ml): 16.3%; dU suppression test value ([2]; B12 deficiency, 10 mcg/ml): 5.8%; dU suppression test value ((3H)-TdR incorporation with dU as percentage of incorporation without dU) ([2]; B12 deficiency, 100 mcg/ml): 5.7%
tetrahydrofolate [THF] | 14.3% | 8.6% | 4.0% | 2.5% | 2.2% | 10.8% | 8.1% | 9.3% | 6.3% | 4.9% | 5.0% | – | – | – | 2.1% | 1.9% | 3.5% | 2.4% | level giving correction of dU suppression ([2]; megaloblastic anemia due to vitamin B12 deficiency): above 6 mL/ml
CN1c2c(nc(N)[nH]c2=O)NC[C@@H]1CNc1ccc(C(=O)N[C@@H](CCC(=O)[O-])C(=O)[O-])cc1.[Ca+2] [me-THF, L-5-methyltetrahydrofolate] | – | – | 3.9% | 4.6% | 4.5% | – | – | 16.1% | – | – | 12.9% | promotes the production of hemoglobin | positive impact | generally leads to a reduction in MCV | 2.7% | 4.3% | 18.4% | 15.7% | effect on homocysteine levels [5]: decrease homocysteine levels; concentration restoring normal dU suppression ([2]; vitamin B12 deficiency): > 300 µg/mL
